Results reported in PubChem BioAssay AID1159565 (GlaxoSmithKline (GSK), 2015).
The source made the active and inactive calls. The rule behind the calls is not given here.

System: T. cruzi-infected H9C2 cardiomyocytes, high-content imaging
Assay: anti-T. cruzi activity in infected cardiomyocytes – imaging, H9C2 host cardiomyocytes, host toxicity (AID 1159565);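 note: infected cells incubated 72 h after plating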
[1] = measured here: H9C2 host cell toxicity
[2] = measured here: amastigotes per cell

Question: With `CC(=O)Nc1ccc(Nc2nccc(-c3cnn4ncccc34)n2)cc1C(F)(F)F` as the compound, how does the IC50 read?
Answer: 500 nM

Question: What about the IC50 [1] of the same compound?
Answer: 63 nM

Question: And the IC50 [2]?
Answer: 200 nM

Question: With `COc1ncc(-c2ccc3nccc(-c4ccncc4)c3c2)cc1NS(=O)(=O)C1CC1` as the compound, how does the IC50 read?
Answer: 2500 nM

Question: And the IC50 [1]?
Answer: 790 nM

Question: What about the IC50 [2] of the same compound?
Answer: 2000 nM

Question: With `CC(C)(C)C(=O)Nc1cc(C2CC2)nn1-c1nc2c(c(=O)[nH]1)CCCC2` as the compound, how does the IC50 read?
Answer: 500 nM

Question: And the IC50 [1]?
Answer: 2000 nM

Question: What about the IC50 [2] of the same compound?
Answer: 130 nM

Question: What does the source list for `CS(=O)(=O)c1ccc(CC(=O)Nc2nc(-c3ccc(Cl)s3)cs2)cc1`?
Answer: IC50: 320 nM; IC50 [1]: 16000 nM; IC50 [2]: 400 nM

Question: What does the source list for `COc1ccc([N+](=O)[O-])cc1NC(=O)Nc1cccc(Cl)c1`?
Answer: IC50: 10000 nM; IC50 [1]: > 50000 nM; IC50 [2]: 400 nM

Question: What does the source list for `O=C(CN(Cc1ccccn1)Cc1ccccn1)NCc1ccc2c(c1)OCO2`?
Answer: IC50: 13000 nM; IC50 [1]: > 79000 nM; IC50 [2]: 6300 nM

Question: For `NCc1csc(Nc2cc(Oc3ccccc3)ncn2)n1`, which IC50 is on record?
Answer: 25000 nM

Question: And the IC50 [1]?
Answer: > 50000 nM

Question: And the IC50 [2]?
Answer: 32000 nM

Question: Which results are given for `O=C(Nc1n[nH]c(-c2ccccn2)n1)C1CC1c1ccccc1` (configuration not stated)?
Answer: IC50: 20000 nM; IC50 [1]: > 50000 nM; IC50 [2]: 16000 nM

Question: What does the source list for `CC(C)(C)c1cc(NC2CC2)nc(-c2ccccn2)n1`?
Answer: IC50: 1600 nM; IC50 [1]: 320 nM; IC50 [2]: 1300 nM

Question: For `O=C(Nc1nccs1)c1ccccc1Cn1cc([N+](=O)[O-])cn1`, which IC50 is on record?
Answer: > 50000 nM (inactive)

Question: And the IC50 [1]?
Answer: > 50000 nM

Question: What about the IC50 [2] of the same compound?
Answer: > 50000 nM

Question: Which results are given for `CCC(=O)Nc1ccc(C(=O)Nc2ccccc2-c2ccccc2)cc1`?
Answer: IC50: 500 nM; IC50 [1]: > 50000 nM; IC50 [2]: 250 nM

Question: Which results are given for `Cc1cccc(NS(=O)(=O)c2cnc3sc(C)cn3c2=O)c1`?
Answer: IC50: 2000 nM; IC50 [1]: 6300 nM; IC50 [2]: 1000 nM

Question: Which results are given for `O=C(Nc1cccc(Cl)c1)Nc1ccc([N+](=O)[O-])cc1Cl`?
Answer: IC50: 2000 nM; IC50 [1]: 4000 nM; IC50 [2]: 1600 nM

Question: What does the source list for `O=[N+]([O-])c1cccc(Nc2cncc(-c3ccccc3CO)c2)c1`?
Answer: IC50: 400 nM; IC50 [1]: > 50000 nM; IC50 [2]: 250 nM

Question: Which IC50 does the source give for `Cc1nc2c(-c3nc(-c4ccc(N)cc4)n[nH]3)cccn2c1C` here?
Answer: > 50000 nM (inactive)

Question: And the IC50 [1]?
Answer: 10000 nM

Question: And the IC50 [2]?
Answer: > 50000 nM

Question: Which results are given for `COc1ccc(C(=O)N2CCC(Nc3cccnc3)C2)c(OC)n1` (configuration not stated)?
Answer: IC50: 790 nM; IC50 [1]: > 50000 nM; IC50 [2]: 790 nM

Question: Which results are given for `COc1cc(C2SCC(=O)Nc3c2c(C)nn3-c2nc3ccccc3s2)cc(OC)c1O` (configuration not stated)?
Answer: IC50: > 50000 nM (inactive); IC50 [1]: > 50000 nM; IC50 [2]: > 50000 nM

Question: How did the IC50 turn out when `COc1ccc(C)cc1-c1csc(NC(=O)C(C)n2ccnc2)n1` (configuration not stated) was run?
Answer: 100 nM

Question: And the IC50 [1]?
Answer: > 50000 nM

Question: What about the IC50 [2] of the same compound?
Answer: 100 nM

Question: `C[C@@H](Oc1cc(-n2cnc3ccc(O[C@H]4CCNC4)cc32)sc1C(N)=O)c1ccccc1Cl` was tested. Which IC50 did it give?
Answer: 13000 nM

Question: What about the IC50 [1] of the same compound?
Answer: 630 nM

Question: What about the IC50 [2] of the same compound?
Answer: 6300 nM

Question: Which results are given for `CCN(CC)S(=O)(=O)c1ccc(OC)c(NC(=O)c2ccc([N+](=O)[O-])s2)c1`?
Answer: IC50: 160 nM; IC50 [1]: > 50000 nM; IC50 [2]: 130 nM

Question: For `Cn1nccc1-c1cc(OC(CN)c2ccccc2)cnc1-c1ccco1` (configuration not stated), which IC50 is on record?
Answer: 100 nM

Question: And the IC50 [1]?
Answer: > 50000 nM

Question: And the IC50 [2]?
Answer: 100 nM

Question: Which IC50 does the source give for `COc1ccc(Nc2nc(NC3CCC(O)CC3)ncc2Br)c(C(N)=O)c1` (configuration not stated) here?
Answer: 3200 nM

Question: What about the IC50 [1] of the same compound?
Answer: 790 nM

Question: What about the IC50 [2] of the same compound?
Answer: 2000 nM

Question: Which IC50 does the source give for `N#Cc1ccc(Br)cc1[N+](=O)[O-]` here?
Answer: 790 nM

Question: And the IC50 [1]?
Answer: 40000 nM

Question: And the IC50 [2]?
Answer: 63 nM

Question: For `CNc1cc(C)nc(C2CN(C(=O)c3n[nH]c4ccccc34)CCO2)c1` (configuration not stated), which IC50 is on record?
Answer: 2500 nM

Question: And the IC50 [1]?
Answer: > 50000 nM

Question: What about the IC50 [2] of the same compound?
Answer: 790 nM

Question: How did the IC50 turn out when `O=C(NCCc1ccccn1)C(c1cn[nH]c1)N1CCN(c2ccc(Cl)c(Cl)c2)CC1` (configuration not stated) was run?
Answer: 160 nM

Question: And the IC50 [1]?
Answer: > 50000 nM

Question: And the IC50 [2]?
Answer: 130 nM

Question: For `CS(=O)(=O)N1CCC(Nc2ncc(Br)c(Nc3cccc(F)c3C(N)=O)n2)CC1`, which IC50 is on record?
Answer: 1000 nM

Question: What about the IC50 [1] of the same compound?
Answer: 160 nM

Question: And the IC50 [2]?
Answer: 400 nM

Question: With `CCN(CC)c1ccc(S(=O)(=O)N(CC)CC)c2nonc12` as the compound, how does the IC50 read?
Answer: 50000 nM

Question: And the IC50 [1]?
Answer: > 50000 nM

Question: And the IC50 [2]?
Answer: 20000 nM

Question: Which results are given for `Cn1nc([N+](=O)[O-])nc1N1CCCCC1`?
Answer: IC50: 13000 nM; IC50 [1]: > 50000 nM; IC50 [2]: 1000 nM

Question: Which IC50 does the source give for `COc1ccccc1C=CCN1C[C@H]2CCC[C@@H](C1)C2(O)c1cccnc1` (some centres not stated) here?
Answer: 40 nM

Question: And the IC50 [1]?
Answer: > 50000 nM

Question: What about the IC50 [2] of the same compound?
Answer: 40 nM
